Read-outs that look alike come from different tables or passages of the source.
Columns and labels:
[1] = system: SMMC-7721 (hepatocellular carcinoma) cells; experiment: MTT cytotoxicity assay, SMMC-7721; assay type: cell-based, human; settings: SMMC-7721, MTT, 48 h, read-out: IC50 against SMMC-7721
Procedure: (§1) Compounds 1–10 were evaluated for their cytotoxic activities against five human cancer cell lines, HL-60 (human myeloid leukemia), SMMC-7721 (hepatocellular carcinoma), A549 (lung cancer), MCF-7 (breast cancer), and SW480 (colon cancer), and one human normal cell line BEAS-2B (human bronchial epithelial) by the MTT method. DDP (cis-platin) and taxol were used as positive controls.
(§2) Five human cancer cell lines, human myeloid leukemia HL-60, hepatocellular carcinoma SMMC-7721, lung cancer A549, breast cancer MCF-7, and colon cancer SW480 cells, together with one human normal cell line BEAS-2B (human bronchial epithelial), were assayed. Cells were cultured in RPMI-1640 or in DMEM medium (Hyclone, USA), supplemented with 10% fetal bovine serum (Hyclone, USA) in 5% CO2 at 37 °C. The antiproliferative assay was performed according to the MTT (3-(4,5-dimethylthiazol-2-yl)-2,5-diphenyl tetrazolium bromide) method in 96-well microplates, as reported previously, with slight modification. Briefly, 100 μL of adherent cells was seeded into each well of 96-well cell culture plates and allowed to adhere for 12 h before addition of test compounds, while suspended cells were seeded just before the addition of the drug with initial density of 1 × 10^5 cells/mL. Each cancer cell line was exposed to the tested compound at concentrations of 0.0625, 0.32, 1.6, 8, and 40 μM in triplicates for 48 h. Wells with DMSO were used as negative controls, and DDP (cis-platin, Sigma, USA) and taxol were used as a positive control. After compound treatment, cell viability was detected by a Bio-Rad 680 at λ = 595 nm and a cell growth curve was graphed. IC50 values were calculated by Reed and Muench’s method.

[2] = system: SW480 (colon cancer) cells; experiment: MTT cytotoxicity assay, SW480; assay type: cell-based, human; settings: 48 h, read-out: IC50 against SW480
Procedure: as §1, §2

[3] = system: A549 (lung cancer) cells; experiment: MTT cytotoxicity assay, A549; assay type: cell-based, human; settings: A-549, MTT, 48 h, read-out: IC50 against A-549
Procedure: as §1, §2

[4] = system: HL-60 (human myeloid leukemia) cells; experiment: MTT cytotoxicity assay, HL-60; assay type: cell-based; settings: HL-60, MTT, 48 h, read-out: IC50 against HL-60
Procedure: as §1, §2

[5] = system: MCF-7 (breast cancer) cells; experiment: MTT cytotoxicity assay, MCF-7; assay type: cell-based, human; settings: MCF-7, MTT, 48 h, read-out: IC50 against MCF-7
Procedure: as §1, §2

[6] = system: BEAS-2B (human bronchial epithelial) cells; experiment: MTT cytotoxicity assay, BEAS-2B normal cell line; assay type: cell-based; settings: BEAS-2B human normal cell line, 48 h, read-out: IC50 against BEAS-2B
Procedure: as §1, §2

With `COc1cc([C@H]2c3cc(O)c(OC)cc3C[C@@H](CO)[C@@H]2CO)ccc1O` [Compound 7, (+)-isolariciresinol] the IC50 ([1]; Homo sapiens) was > 40 µM, the IC50 ([2]; Homo sapiens) was > 40 µM and the IC50 ([3]; Homo sapiens, A549) was > 40 µM. For the same molecule, the IC50 ([4]; Homo sapiens) was > 40 µM, the IC50 ([5]; Homo sapiens, MCF7) was > 40 µM and the IC50 [6] was > 40 µM.

For `N.N.[Cl][Pt][Cl]` [DDP ( cis-platin), cis-platin, reference compound], the IC50 [1] was 16.2 µM, the IC50 [2] was 18.1 µM and the IC50 [3] was 14.1 µM. It also gave an IC50 [4] of 1.25 µM, an IC50 [5] of 16.9 µM and an IC50 [6] of 8.61 µM.

Work on `CCCCC/C=C/C=C/C(=O)O[C@@H]1[C@@H](C)[C@@]2(O)[C@@H](C=C(CO)C[C@]3(O)C(=O)C(C)=C[C@@H]23)[C@@H]2C(C)(C)[C@]12OC(C)=O` [Compound 5, prostratin Q] yielded an IC50 ([1]; Homo sapiens) of 15.1 µM, an IC50 ([2]; Homo sapiens) of 14.8 µM and an IC50 ([3]; Homo sapiens, A549) of 15.8 µM. It also gave an IC50 ([4]; Homo sapiens) of 15.8 µM, an IC50 ([5]; Homo sapiens, MCF7) of 15 µM and an IC50 [6] of 16.6 µM.

With `COc1ccc(C[C@@H]2COC(=O)[C@H]2Cc2ccc(OC)c(O)c2)cc1O` [Compound 10, prestegane B] the IC50 ([1]; Homo sapiens) was > 40 µM, the IC50 ([2]; Homo sapiens) was > 40 µM and the IC50 ([3]; Homo sapiens, A549) was > 40 µM. The IC50 ([4]; Homo sapiens) was > 40 µM, the IC50 ([5]; Homo sapiens, MCF7) was > 40 µM and the IC50 [6] was > 40 µM.

With `CC(=O)O[C@@]12C[C@@H](C)[C@@]3(O)[C@@H](C=C(CO)C[C@]4(O)C(=O)C(C)=C[C@@H]34)[C@@H]1C2(C)C` [Compound 4, prostratin] the IC50 ([1]; Homo sapiens) was 18.1 µM, the IC50 ([2]; Homo sapiens) was 13.3 µM and the IC50 ([3]; Homo sapiens, A549) was 12.6 µM. For the same molecule, the IC50 ([4]; Homo sapiens) was 15.6 µM, the IC50 ([5]; Homo sapiens, MCF7) was 16 µM and the IC50 [6] was 17.4 µM.

With `COc1cc([C@H]2OC[C@H]3[C@@H]2CO[C@H]3c2ccc(O)c(OC)c2)ccc1O` [Compound 6, (+)-epipioresinol] the IC50 ([1]; Homo sapiens) was > 40 µM, the IC50 ([2]; Homo sapiens) was > 40 µM and the IC50 ([3]; Homo sapiens, A549) was > 40 µM. The IC50 ([4]; Homo sapiens) was > 40 µM, the IC50 ([5]; Homo sapiens, MCF7) was > 40 µM and the IC50 [6] was > 40 µM.

In the case of `O=C(c1ccc2c(c1)OCO2)[C@H]1CO[C@H](c2ccc3c(c2)OCO3)[C@H]1CO` [Compound 9, (+)-epi-sesaminone], the IC50 ([1]; Homo sapiens) is reported as > 40 µM, the IC50 ([2]; Homo sapiens) is reported as > 40 µM and the IC50 ([3]; Homo sapiens, A549) is reported as > 40 µM. For the same molecule, the IC50 ([4]; Homo sapiens) was > 40 µM, the IC50 ([5]; Homo sapiens, MCF7) was > 40 µM and the IC50 [6] was > 40 µM.

In the case of `C=C(C)[C@]12C[C@@H](C)[C@@]34OC5(CCCCCCC[C@H](C)[C@H]6[C@H](C)[C@H](OC(=O)c7ccccc7)[C@@](O)([C@H](O)[C@@]7(CO)O[C@H]7[C@H]3[C@H]1O5)[C@@H]64)O2` [Compound 2, pimelea factors P2], the IC50 ([1]; Homo sapiens) is reported as 17.5 µM, the IC50 ([2]; Homo sapiens) is reported as 15.9 µM and the IC50 ([3]; Homo sapiens, A549) is reported as 12.1 µM. For the same molecule, the IC50 ([4]; Homo sapiens) was 13.8 µM, the IC50 ([5]; Homo sapiens, MCF7) was 12.8 µM and the IC50 [6] was 17.4 µM.

For `C=C(C)[C@]12C[C@@H](C)[C@@]34OC5(CCCCCCC[C@@H](C)[C@H]6[C@H](C)[C@H](O)[C@@](O)([C@H](O)[C@@]7(COC(=O)/C=C/c8ccccc8)O[C@H]7[C@H]3[C@H]1O5)[C@@H]64)O2` [Compound 1, wikstroelide Q], the IC50 ([1]; Homo sapiens) was > 40 µM, the IC50 ([2]; Homo sapiens) was > 40 µM and the IC50 ([3]; Homo sapiens, A549) was > 40 µM. For the same molecule, the IC50 ([4]; Homo sapiens) was 26.4 µM, the IC50 ([5]; Homo sapiens, MCF7) was > 40 µM and the IC50 [6] was > 40 µM.

`CC(=O)O[C@H]1C(=O)[C@@]2(C)[C@H]([C@H](OC(=O)c3ccccc3)[C@]3(O)C[C@H](OC(=O)[C@H](O)[C@@H](NC(=O)c4ccccc4)c4ccccc4)C(C)=C1C3(C)C)[C@]1(OC(C)=O)CO[C@@H]1C[C@@H]2O` [Taxol, taxol, reference compound] was tested, and the IC50 ([1]; Homo sapiens) was < 0.008 µM, the IC50 ([2]; Homo sapiens) was < 0.008 µM and the IC50 ([3]; Homo sapiens, A549) was < 0.008 µM. The IC50 ([4]; Homo sapiens) was < 0.008 µM, the IC50 ([5]; Homo sapiens, MCF7) was < 0.008 µM and the IC50 [6] was 5 µM.

With `COc1cc(C[C@@H]2CO[C@@H](c3ccc(O)c(OC)c3)[C@@H]2CO)ccc1O` [Compound 8, (−)-lariciresinol] the IC50 ([1]; Homo sapiens) was > 40 µM, the IC50 ([2]; Homo sapiens) was > 40 µM and the IC50 ([3]; Homo sapiens, A549) was > 40 µM. For the same molecule, the IC50 ([4]; Homo sapiens) was > 40 µM, the IC50 ([5]; Homo sapiens, MCF7) was > 40 µM and the IC50 [6] was > 40 µM.

`C=C(C)[C@@]12C[C@@H](C)[C@@]34OC5(CCCCCCC[C@@H](C)[C@H]6[C@H](C)[C@H](OC(=O)c7ccccc7)[C@@](O)([C@H](O)[C@@]7(CO)O[C@H]7[C@H]3[C@H]1O5)[C@@H]64)O2` [Compound 3, pimelea factor P3] was tested, and the IC50 ([1]; Homo sapiens) was 14.9 µM, the IC50 ([2]; Homo sapiens) was 14.4 µM and the IC50 ([3]; Homo sapiens, A549) was 11.1 µM. It also gave an IC50 ([4]; Homo sapiens) of 13.3 µM, an IC50 ([5]; Homo sapiens, MCF7) of 14 µM and an IC50 [6] of 15.4 µM.

Source: PMC6268896, “Two New Diterpenoids from the Buds of Wikstroemia chamaedaphne” (Molecules, 2012)
